Results from PubChem BioAssay AID1117319 (Southern Research Institute, 2015).
Records with an inconclusive call do not appear.

Each compound was assayed against Virion infectivity factor (Human immunodeficiency virus type 1 group M subtype B (isolate BH10)) + Virion infectivity factor (Human immunodeficiency virus type 1 group M subtype B (isolate BRU/LAI)) + Virion infectivity factor (Human immunodeficiency virus type 1 group M subtype B (isolate PCV12)) + Virion infectivity factor (Human immunodeficiency virus type 1 group M subtype B (isolate HXB2)) + DNA dC->dU-editing enzyme APOBEC-3G (Homo sapiens) (UniProt P69720+P69721+P69722+P69723+Q9HC16) (assay: HIV-1 Vif–A3G interaction blockers – biochemical, TR-FRET, GST-Vif 1-94, biotin-A3G peptide, dose response retest, primary screen (AID 1117319;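 further: Vif residues 1-94 fused to GST binding biotinylated APOBEC3G peptide 110-148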)). Details: TR-FRET GST-Vif / biotin-A3G peptide binding.

For `S=c1[nH]nc(COc2ccc3c(c2)OCO3)n1-c1ccccc1`, which IC50 is on record?
Its IC50 is 48.3 µM.

`CCN(CC)S(=O)(=O)c1ccc(/C=C/C(=O)Nc2ccc(N3CCOCC3)cc2)cc1` was tested. Which IC50 did it give?
Its IC50 is 55.7 µM.

For `CCOC(=O)C(=O)Cc1cccnn1`, which IC50 is on record?
Its IC50 is 0.65 µM.

With `COc1cccc(-c2nn(C)c3sc(C(=O)Nc4ccc5c(c4)OCCO5)cc23)c1` as the compound, how does the IC50 read?
The IC50 was 51.6 µM.

`Cc1ccccc1NC(=O)CSc1nnc(-c2ccco2)c(-c2ccco2)n1` was tested. Which IC50 did it give?
The IC50 was 1.17 µM.

How did the IC50 turn out when `Cc1ccsc1C=Nc1ccc(O)cc1` was run?
The IC50 was 17.1 µM.

Which IC50 does the source give for `COc1cccc(NS(=O)(=O)c2ccc3c(c2)C2C=CCC2C(c2ccc(C(=O)O)cc2)N3)c1` (stereo not given) here?
The IC50 was 3.32 µM.

With `O=C(O)c1ccc2c(c1)C1C=CCC1C(c1ccncc1)N2` (stereo not given) as the compound, how does the IC50 read?
Its IC50 is 3.85 µM.

For `CS(=O)(=O)N(CC(=O)Nc1ccc2c(c1)OCO2)Cc1ccccc1`, which IC50 is on record?
Its IC50 is 94.7 µM.

With `CCOc1ccc(-n2c(=O)c3c(C)c(C)sc3n(CC(=O)NCc3ccco3)c2=O)cc1` as the compound, how does the IC50 read?
Its IC50 is 74.9 µM.

Which IC50 does the source give for `CCC(C)[C@@H](C(=O)Nc1ccc2c(c1)OCO2)N1Cc2ccccc2C1=O` (stereo not given in full) here?
The IC50 was 98.4 µM.

How did the IC50 turn out when `O=C(COc1ccc(Cl)cc1)N1CCN(S(=O)(=O)c2ccc(Cl)cc2)CC1` was run?
Its IC50 is 50.7 µM.

With `Cc1cccc(C)c1NS(=O)(=O)c1c(C)[nH]c(=O)[nH]c1=O` as the compound, how does the IC50 read?
Its IC50 is 85.4 µM.

With `Nc1cccc2cc(S(=O)(=O)O)ccc12` as the compound, how does the IC50 read?
Its IC50 is 35 µM.

With `O=[N+]([O-])c1ccc(N/N=C/c2ccc(O)c(O)c2O)c(S(=O)(=O)N2CCOCC2)c1` as the compound, how does the IC50 read?
The IC50 was 1.14 µM.

With `COc1ccc(NC(=O)CN(C)C(=O)c2cc(-c3ccco3)nc3ccccc23)cc1` as the compound, how does the IC50 read?
Its IC50 is 4.87 µM.

Which IC50 does the source give for `COc1ccc(-n2c(C)cc(C(=O)CSc3nn4c(=O)c(C(C)(C)C)nnc4s3)c2C)cc1` here?
Its IC50 is 10.3 µM.

Which IC50 does the source give for `CC1Cc2ccccc2N1Cc1cc(=O)n2ccsc2n1` (stereo not given) here?
The IC50 was 7.03 µM.

How did the IC50 turn out when `O=C(Cc1csc(N2CCOCC2)n1)N/N=C/c1ccc(O)c(O)c1O` was run?
The IC50 was 1.3 µM.

`CN(C)C(CNC(=O)c1cccnc1Sc1ccccc1)c1ccco1` (stereo not given) was tested. Which IC50 did it give?
The IC50 was 64 µM.

`Cc1ccc(-c2ccc(CCC(=O)O)n2NC(N)=S)cc1` was tested. Which IC50 did it give?
Its IC50 is 11.5 µM.

Which IC50 does the source give for `Oc1ccc(/C=N/N=C/c2ccc(O)c(O)c2)cc1O` here?
The IC50 was 4.82 µM.

For `O=[n+]1c2c(n([O-])c3cc(F)c(F)cc31)CCCC2`, which IC50 is on record?
The IC50 was 5.33 µM.

Which IC50 does the source give for `COc1cc(OC)c2c(c1O)OC(c1ccccc1)CC2=O` (stereo not given) here?
Its IC50 is 4.82 µM.

`O=C(O)C1=NN(c2cc(Cl)c(S(=O)(=O)O)cc2Cl)C(=O)C1` was tested. Which IC50 did it give?
Its IC50 is 85.7 µM.

`Cc1ccc(C)n1-c1sccc1C(=O)O` was tested. Which IC50 did it give?
Its IC50 is 1.92 µM.

`O=C(O)CCc1ccc(S(=O)(=O)Nc2cc(C(F)(F)F)ccc2N2CCCC2)cc1` was tested. Which IC50 did it give?
Its IC50 is 14.4 µM.

Which IC50 does the source give for `CCOC(=O)C1=C(O)/C(=C\c2ccc(CNC(=O)C(=O)Nc3ccccc3)o2)N=C1C` here?
The IC50 was 1.86 µM.

Which IC50 does the source give for `NS(=O)(=O)c1ccc2c(c1)C1C=CCC1C(C1CC=CCC1)N2` (stereo not given) here?
The IC50 was 3.42 µM.

With `CCc1ccccc1NC(=O)c1cccc(NC(=O)/C=C/c2ccco2)c1` as the compound, how does the IC50 read?
The IC50 was 10.8 µM.

Which IC50 does the source give for `CNCc1ccccc1Sc1cc(O)ccc1O` here?
The IC50 was 3.46 µM.

Which IC50 does the source give for `Cc1cc(-c2csc(NC(=O)c3cc4ccccc4o3)n2)c(C)n1C` here?
Its IC50 is 48.7 µM.

With `O=C1C(Cl)=C(N2CCOCC2)C(=O)N1c1ccccc1` as the compound, how does the IC50 read?
The IC50 was 2.18 µM.

How did the IC50 turn out when `Cc1cccc(/C=C(\C(=O)O)c2ccc(S(=O)(=O)N3CCCC3)s2)c1` was run?
Its IC50 is 22 µM.

For `C=CCn1c(C)cc(-c2csc(N)n2)c1C`, which IC50 is on record?
Its IC50 is 1.23 µM.

How did the IC50 turn out when `Cc1cc(C)cc(N(CC(=O)NCc2cccnc2)S(C)(=O)=O)c1` was run?
Its IC50 is 36.7 µM.

How did the IC50 turn out when `O=C(NCCN1CCN(c2ccccc2)CC1)C1CCN(S(=O)(=O)c2cccc3nonc23)CC1` was run?
The IC50 was 43 µM.

`COc1ccccc1N1C(=O)NC(=O)/C(=C/c2ccc([N+](=O)[O-])s2)C1=O` was tested. Which IC50 did it give?
Its IC50 is 6.9 µM.

For `COC(=O)CCC(=O)OC1(C)C(=O)C2=COC(c3ccc(OC)cc3)=CC2=C(Br)C1=O` (stereo not given), which IC50 is on record?
Its IC50 is 13.7 µM.

`O=[N+]([O-])c1cc(Br)c(O)c(C=Nc2ccc(N3CCOCC3)cc2)c1` was tested. Which IC50 did it give?
Its IC50 is 7.19 µM.

How did the IC50 turn out when `C=CCN(CC=C)C(=S)NC(=O)c1ccc([N+](=O)[O-])cc1` was run?
Its IC50 is 66.8 µM.

How did the IC50 turn out when `O=C(CSc1nc(-c2ccco2)cc(C(F)(F)F)n1)N1CCc2ccccc2C1` was run?
The IC50 was 22.8 µM.

For `O=C1NC(=S)S/C1=C\c1ccc(SCc2ccco2)o1`, which IC50 is on record?
Its IC50 is 0.81 µM.

For `Cc1cc(SCC2=NNC(=O)C2)c(Cl)cc1Cl`, which IC50 is on record?
The IC50 was 63.2 µM.

`Cc1c(C(=O)N2CCN(c3ccc(F)cc3)CC2)sc2nc(-c3ccccc3)cn12` was tested. Which IC50 did it give?
Its IC50 is 48.7 µM.
